The structures appear in SMILES notation.

The assay deals with T1, N-terminally GST-tagged human full length recombinant Mps-1 kinase (Homo sapiens, UniProt P33981).
T1 construct: N-terminally GST-tagged human full length recombinant Mps-1 kinase; purchased Invitrogen, Karslruhe, Germany PV4071
T1 sequence (P33981 1-857): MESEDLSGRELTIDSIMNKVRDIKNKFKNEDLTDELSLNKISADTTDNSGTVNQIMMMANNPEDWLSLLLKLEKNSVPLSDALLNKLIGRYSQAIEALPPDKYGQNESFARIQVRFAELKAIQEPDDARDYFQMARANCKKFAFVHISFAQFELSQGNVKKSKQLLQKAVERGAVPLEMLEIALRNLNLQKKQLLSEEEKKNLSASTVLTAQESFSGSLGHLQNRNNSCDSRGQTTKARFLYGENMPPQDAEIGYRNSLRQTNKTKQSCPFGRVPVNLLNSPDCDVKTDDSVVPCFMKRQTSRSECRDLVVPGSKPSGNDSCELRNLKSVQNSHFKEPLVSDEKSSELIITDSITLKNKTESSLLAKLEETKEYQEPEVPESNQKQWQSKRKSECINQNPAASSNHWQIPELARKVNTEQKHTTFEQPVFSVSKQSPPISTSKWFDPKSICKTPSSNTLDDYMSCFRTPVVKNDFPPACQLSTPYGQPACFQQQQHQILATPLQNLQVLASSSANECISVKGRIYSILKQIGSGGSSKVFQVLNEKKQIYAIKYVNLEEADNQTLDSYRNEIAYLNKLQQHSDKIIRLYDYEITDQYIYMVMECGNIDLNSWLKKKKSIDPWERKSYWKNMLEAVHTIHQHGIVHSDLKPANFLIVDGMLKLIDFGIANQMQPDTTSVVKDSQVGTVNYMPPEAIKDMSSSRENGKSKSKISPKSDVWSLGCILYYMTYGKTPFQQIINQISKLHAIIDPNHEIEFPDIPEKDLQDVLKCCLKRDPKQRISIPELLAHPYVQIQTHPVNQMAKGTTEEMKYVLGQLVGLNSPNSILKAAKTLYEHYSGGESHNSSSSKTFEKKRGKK
Kind of assay: Mps-1 kinase assay (TR-FRET). The format is biochemical. The conditions noted are these: Mps1 IC50 [nM], 10 μM ATP, 1 μM peptide substrate, 60 min at 22° C. The gist of the method: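 Next, Eu-labelled anti-phospho(Ser/Thr) antibody and SA-XLent bind for 1 h at 22° C. Finally, energy transfer quantifies phosphorylated product.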
A general note: In TR-FRET formats the signal depends on donor and acceptor labels being close together.
Take `Cc1cc(-c2cnc3c(NCC(C)(C)O)cc(Sc4cccc(O)c4)nn23)ccc1C(=O)NC1CC1` [Example 61A, N-cyclopropyl-4-{8-[(2-hydroxy-2-methylpropyl)amino]-6-[(3-hydroxyphenyl)sulfanyl]imidazo[1,2-b]pyridazin-3-yl}-2-methylbenzamide]: the IC50 was found to be 0.2 nM.

Consider `COc1ccccc1Nc1cc(NCC(C)(C)O)c2ncc(-c3ccc(C(=O)NC4CC4)c(C)c3)n2n1` [Example 402, N-cyclopropyl-4-{8-[(2-hydroxy-2-methylpropyl)amino]-6-[(2-methoxyphenyl)amino]imidazo[1,2-b]pyridazin-3-yl}-2-methylbenzamide], for which the IC50 was 3.4 nM.

Take `Cc1cc(-c2cnc3c(NCC4CCC(F)(F)CC4)cc(Oc4cccc(F)c4)nn23)ccc1C(=O)NC1CC1` [Example 494, N-cyclopropyl-4-[8-{[(4,4-difluorocyclohexyl)methyl]amino}-6-(3-fluorophenoxy)imidazo[1,2-b]pyridazin-3-yl]-2-methylbenzamide]: the IC50 was 0.3 nM.

Turning to `Cc1cc(-c2cnc3c(NCC(F)F)cc(Oc4cccc(F)c4)nn23)ccc1C(=O)NC1CC1` [Example 512, N-cyclopropyl-4-{8-[(2,2-difluoro-ethyl)amino]-6-(3-fluoro-phenoxy)imidazo[1,2-b]pyridazin-3-yl}-2-methylbenzamide], the IC50 is 0.1 nM.

`Cc1cc(-c2cnc3c(NCC(C)C)cc(C(=O)NCCO)nn23)ccc1C(=O)NC1CC1` [Example 199, 3-[4-(Cyclopropylcarbamoyl)-3-methylphenyl]-N-(2-hydroxyethyl)-8-[(2-methylpropyl)amino]imidazo[1,2-b]pyridazine-6-carboxamide]: the IC50 was 6.9 nM.

`Cc1cc(-c2cnc3c(NCC(C)(C)O)cc(Sc4cc(F)ccc4F)nn23)ccc1C(=O)NC1CC1` [Example 248, N-cyclopropyl-4-{6-[(2,5-difluorophenyl)sulfanyl]-8-[(2-hydroxy-2-methylpropyl)amino]imidazo[1,2-b]pyridazin-3-yl}-2-methylbenzamide]: the IC50 worked out at 0.5 nM.

Turning to `Cc1ccc(Cl)cc1Nc1cc(NCC(C)(C)O)c2ncc(-c3ccc(C(=O)NC4CC4)c(C)c3)n2n1` [Example 404, 4-{6-[(5-chloro-2-methylphenyl)amino]-8-[(2-hydroxy-2-methylpropyl)amino]imidazo[1,2-b]pyridazin-3-yl}-N-cyclopropyl-2-methylbenzamide], the IC50 is 0.3 nM.

Regarding `COc1ccccc1Oc1cc(NCCC(F)(F)F)c2ncc(-c3ccc(C(=O)NC4CC4)c(C)c3)n2n1` [Example 223, N-cyclopropyl-4-{6-(2-methoxyphenoxy)-8-[(3,3,3-trifluoropropyl)amino]imidazo[1,2-b]pyridazin-3-yl}-2-methylbenzamide], the IC50 is 0.2 nM.

For the molecule `C/C=C(\C)c1cc(NCCC(F)(F)F)c2ncc(-c3ccc(C(=O)NC4CC4)c(C)c3)n2n1` [Example 221, 4-{6-[(2E)-but-2-en-2-yl]-8-[(3,3,3-trifluoropropyl)amino]imidazo[1,2-b]pyridazin-3-yl}-N-cyclopropyl-2-methylbenzamide], the IC50 is 1.2 nM.

As for `Cc1cc(-c2cnc3c(NCCC(F)(F)F)cc(SCCO)nn23)ccc1C(=O)NC1CC1` [Example 204, N-cyclopropyl-4-{6-[(2-hydroxyethyl)sulfanyl]-8-[(3,3,3-trifluoropropyl)amino]imidazo[1,2-b]pyridazin-3-yl}-2-methylbenzamide], the IC50 was less than 1 nM.

With `Cc1cc(-c2cnc3c(NCC(C)(C)O)cc(Nc4ccccn4)nn23)ccc1C(=O)NC1CC1` [Example 357, N-cyclopropyl-4-{8-[(2-hydroxy-2-methylpropyl)amino]-6-(pyridin-2-ylamino)imidazo[1,2-b]pyridazin-3-yl}-2-methylbenzamide], the IC50 was 4.4 nM.

In the case of `Cc1cccc(-c2cc(NCC(C)C)c3ncc(-c4ccc(C(=O)NC5CC5)cc4)n3n2)c1C` [Example 106, N-cyclopropyl-4-{6-(2,3-dimethylphenyl)-8-[(2-methylpropyl)amino]imidazo[1,2-b]pyridazin-3-yl}benzamide], the IC50 came out at 8.9 nM.

Consider `Cc1ccc(Oc2cc(NCC(C)(C)O)c3ncc(-c4ccc(C(=O)NC5CC5)c(C)c4)n3n2)cn1` [Example 264, N-cyclopropyl-4-{8-[(2-hydroxy-2-methylpropyl)amino]-6-[(6-methylpyridin-3-yl)oxy]imidazo[1,2-b]pyridazin-3-yl}-2-methylbenzamide], for which the IC50 turned out to be 2 nM.

In the case of `Cc1cc(Oc2cc(NCC(C)(C)O)c3ncc(-c4ccc(C(=O)NC5CC5)c(C)c4)n3n2)n[nH]1` [Example 415, N-cyclopropyl-4-{8-[(2-hydroxy-2-methylpropyl)amino]-6-[(5-methyl-1H-pyrazol-3-yl)oxy]imidazo[1,2-b]pyridazin-3-yl}-2-methylbenzamide], the IC50 amounted to 8.2 nM.

`CNC(=O)c1ccc(-c2cnc3c(NCC4CCOCC4)cc(Oc4ccc(OC)c(F)c4)nn23)cc1C` [Example 573, 4-{6-(3-fluoro-4-methoxyphenoxy)-8-[(tetrahydro-2H-pyran-4-ylmethyl)amino]imidazo[1,2-b]pyridazin-3-yl}-N,2-dimethylbenzamide]: the IC50 was less than 1 nM.

Consider `CCNC(=O)c1ccc(-c2cnc3c(NCCOC)cc(Oc4ccc(OC)c(F)c4)nn23)cc1C` [Example 610, N-ethyl-4-{6-(3-fluoro-4-methoxyphenoxy)-8-[(2-methoxyethyl)a-mino]imidazo[1,2-b]pyridazin-3-yl}-2-methylbenzamide], for which the IC50 was less than 1 nM.

Regarding `Cc1cc(Sc2cc(NCC(C)(C)O)c3ncc(-c4ccc(C(=O)NC5CC5)c(C)c4)n3n2)ccc1F` [Example 65, N-cyclopropyl-4-{6-[(4-fluoro-3-methylphenyl)sulfanyl]-8-[(2-hydroxy-2-methylpropyl)amino]imidazo[1,2-b]pyridazin-3-yl}-2-methylbenzamide], the IC50 was 0.7 nM.

With `COc1ccccc1-c1cc(NCC(C)C)c2ncc(-c3ccc(C(=O)NC4CC4)cc3)n2n1` [Example 129, N-cyclopropyl-4-{6-(2-methoxyphenyl)-8-[(2-methylpropyl)amino]imidazo[1,2-b]pyridazin-3-yl}benamide], the IC50 worked out at 3.3 nM.

Turning to `Cc1cc(-c2cnc3c(NCCC(F)(F)F)cc(S(=O)(=O)c4cccc(F)c4)nn23)ccc1C(=O)NC1CC1` [Example 83A, N-cyclopropyl-4-{6-[(3-fluorophenyl)sulfonyl]-8-[(3,3,3-trifluoropropyl)amino]imidazo[1,2-b]pyridazin-3-yl}-2-methylbenzamide], the IC50 came out at 0.2 nM.

Consider `CC(C)CNc1cc(-c2cccc(F)c2)nn2c(-c3ccc(C(=O)NC4CC4)cc3)cnc12` [Example 128, N-cyclopropyl-4-{6-(3-fluorophenyl)-8-[(2-methylpropyl)amino]imidazo[1,2-b]pyridazin-3-yl}benzamide], for which the IC50 was 2.7 nM.

Turning to `Cc1cc(-c2cnc3c(NCC4CC(F)(F)C4)cc(Oc4cccc(F)c4)nn23)ccc1C(=O)NC1CC1` [Example 330, N-cyclopropyl-4-[8-{[(3,3-difluorocyclobutyl)methyl]amino}-6-(3-fluoro-phenoxy)imidazo[1,2-b]pyridazin-3-yl]-2-methyl-benzamide], the IC50 came to 0.2 nM.

On to `CCNC(=O)c1ccc(-c2cnc3c(NCCC(F)(F)F)cc(Oc4ccccc4C)nn23)cc1C` [Example 601, N-ethyl-2-methyl-4-{6-(2-methylphenoxy)-8-[(3,3,3-trifluoropropyl)a-mino]imidazo[1,2-b]pyridazin-3-yl}benzamide], for which the IC50 is less than 1 nM.

For `Cc1ccc(Cl)cc1Nc1cc(NCCC(F)(F)F)c2ncc(-c3ccc(C(=O)NC4CC4)c(C)c3)n2n1` [Example 377, 4-{6-[(5-chloro-2-methylphenyl)amino]-8-[(3,3,3-trifluoropropyl)amino]imidazo[1,2-b]pyridazin-3-yl}-N-cyclopropyl-2-methylbenzamide], the IC50 came to 0.3 nM.

Take `CNC(=O)c1ccc(-c2cnc3c(NCC(F)F)cc(Oc4ccc(OC)cc4F)nn23)cc1C` [Example 580, 4-{8-[(2,2-difluoroethyl)amino]-6-(2-fluoro-4-meth-oxyphenoxy)imidazo[1,2-b]pyridazin-3-yl}-N,2-dimethylbenzamide]: the IC50 was less than 1 nM.

`Cc1cc(-c2cnc3c(NCC(C)C)cc(Cl)nn23)ccc1C(=O)NC1CC1` [Example 99, 4-{6-Chloro-8-[(2-methylpropyl)amino]imidazo[1,2-b]pyridazin-3-yl}-N-cyclopropyl-2-methylbenzamide]: the IC50 was found to be 29.5 nM.

As a reminder, the IC50 is the concentration at which inhibition is half-maximal.

The values are drawn from patent US9255100B2 (BAYER INTELLECTUAL PROPERTY GMBH, priority 2010, dated 2016).
